Where only a bound is given, the exact number is not on record here.

Assay [1] has as its system polyclonal anti-taxane (TA11) antibody. Put plainly: indirect competitive immunoassay, cross-reactivity with TA11. Particulars: > x = highest concentration tested (270 or 300 ng/ml), read-out: IC50 TA11 (concentration of analyte required to inhibit antibody binding to solid phase antigen by 50%). An excerpt: (§1) A preferred antibody is TA14 available from Hawaii Biotechnology Group is particularly useful for this purpose. The cross-reactivity of polyclonal anti-taxane (TA11) and taxol- (TA12), baccatin III- (TA13), or "generic taxane"-specific (TA14) monoclonal antibodies as determined by indirect competitive immunoassays is set forth in Table 1. All of these antibodies are available from Hawaii Biotechnology group.
(§2) ^a Crossreactivity is expressed as the concentration of analyte
(§3) required to inhibit antibody binding to solid phase antigen by 50%
(§4) (IC50) in the indicated competitive immunoassay. Values expressed as
(§5) > x represent the highest concentration tested (either 270 or 300 ng/ml).

For assay [2], the system named is taxol-specific (TA12) monoclonal antibody. Put plainly: indirect competitive immunoassay, cross-reactivity with TA12. The arrangement: species or system mouse. The note with it: > x = highest concentration tested (270 or 300 ng/ml), read-out: IC50 TA12 (concentration of analyte required to inhibit antibody binding to solid phase antigen by 50%).
Description: as §1, §2, §3, §4, §5

For assay [3], the system named is baccatin III-specific (TA13) monoclonal antibody. Put plainly: indirect competitive immunoassay, cross-reactivity with TA13. The arrangement: species or system mouse. Particulars: > x = highest concentration tested (270 or 300 ng/ml), read-out: IC50 TA13 (concentration of analyte required to inhibit antibody binding to solid phase antigen by 50%).
Description: as §1, §2, §3, §4, §5

For assay [4], the system named is "generic taxane"-specific (TA14) monoclonal antibody. Description: indirect competitive immunoassay, cross-reactivity with TA14. The note with it: > x = highest concentration tested (270 or 300 ng/ml), read-out: IC50 TA14 (concentration of analyte required to inhibit antibody binding to solid phase antigen by 50%). On the set-up: species or system mouse.
Description: as §1, §2, §3, §4, §5

The test system is the same in assay [5]. Particulars: in words; Kingston et al. J. Nat. Prod. 53:1-12 (1990); cited from earlier work.
The test system of assay [6] is taxol-specific (TA12) monoclonal antibody. Particulars: in words; cited from earlier work.
Assay [7] concerns baccatin III-specific (TA13) monoclonal antibody. Particulars: in words; cited from earlier work.

Turning to `CC(=O)O[C@@]12CO[C@@H]1C[C@@H](O)[C@@]1(C)C(=O)[C@H](O)C3=C(C)[C@@H](O)C[C@@](O)([C@@H](OC(=O)c4ccccc4)[C@H]21)C3(C)C` [7-epi-10-deacetylbaccatin III], the IC50 in assay [1] is 34 nM; in assay [2] it was above 496 nM.

Consider `CC(=O)O[C@@]12CO[C@@H]1C[C@@H](O)[C@@]1(C)C(=O)[C@H](O)C3=C(C)[C@@H](OC(=O)[C@H](O)[C@@H](NC(=O)c4ccccc4)c4ccccc4)C[C@@](O)([C@@H](OC(=O)c4ccccc4)[C@H]21)C3(C)C` [7-epi-10-deacetyltaxol], for which the IC50 is 1.2 nM in assay [1], 25 nM in assay [2], above 333 nM in assay [3] and 15 nM in assay [4].

Take `CC(=O)O[C@H]1C(=O)[C@]2(C)[C@H](O)C[C@H]3OC[C@@]3(OC(C)=O)[C@H]2[C@H](OC(=O)c2ccccc2)[C@]2(O)C[C@H](OC(=O)[C@H](O)[C@@H](NC(=O)c3ccccc3)c3ccccc3)C(C)=C1C2(C)C` [7-epi-taxol]: the IC50 in assay [1] is 8 nM; in assay [2], 80 nM; in assay [3], above 316 nM; in assay [4] it was 50 nM.

As to `CC(=O)O[C@@]12CO[C@@H]1C[C@H](O[C@@H]1OC[C@@H](O)[C@H](O)[C@H]1O)[C@@]1(C)C(=O)[C@H](O)C3=C(C)[C@@H](OC(=O)[C@H](O)[C@@H](NC(=O)c4ccccc4)c4ccccc4)C[C@@](O)([C@@H](OC(=O)c4ccccc4)[C@H]21)C3(C)C` [7-xylosyl-10-deacetyltaxol], the IC50 in assay [1] amounted to 1.8 nM.

Consider `CC(=O)O[C@@]12CO[C@@H]1C[C@H](O)[C@@]1(C)C(=O)[C@H](O)C3=C(C)[C@@H](OC(=O)[C@H](O)[C@@H](NC(=O)c4ccccc4)c4ccccc4)C[C@@](O)([C@@H](OC(=O)c4ccccc4)[C@H]21)C3(C)C` [10-deacelyltaxol], for which the IC50 in assay [1] was found to be 0.7 nM.

Turning to `CC(=O)O[C@@]12CO[C@@H]1C[C@H](O)[C@@]1(C)C(=O)[C@H](O)C3=C(C)[C@@H](O)C[C@@](O)([C@@H](OC(=O)c4ccccc4)[C@H]21)C3(C)C` [10-deacetylbaccatin III], the “cross-reaction with TA14” value in assay [5] is reported as “cross reacts”.

Regarding `CC(=O)O[C@H]1C(=O)[C@@]2(C)[C@H]([C@H](OC(=O)c3ccccc3)[C@]3(O)C[C@H](OC(=O)[C@H](O)[C@@H](NC(=O)c4ccccc4)c4ccccc4)C(C)=C1C3(C)C)[C@]1(OC(C)=O)CO[C@@H]1C[C@@H]2O` [Taxol ® (paclitaxel), paclitaxel], the IC50 in assay [1] stood at 0.5 nM. For the same compound, in assay [6], the “reactivity with TA12” value was “specifically reactive”. Moreover, in assay [5], the “cross-reaction with TA14” value is recorded as “cross reacts”.

Turning to `CC(=O)O[C@@]12CO[C@@H]1C[C@H](O)[C@@]1(C)C(=O)[C@H](O)C3=C(C)[C@@H](OC(=O)[C@H](O)[C@@H](NC(=O)OC(C)(C)C)c4ccccc4)C[C@@](O)([C@@H](OC(=O)c4ccccc4)[C@H]21)C3(C)C` [Taxotere ® (docetaxel), docetaxel], the IC50 in assay [2] is above 318 nM; in assay [3], above 318 nM; in assay [4], 10 nM.

On to `CC(=O)O[C@H]1C(=O)[C@@]2(C)[C@H]([C@H](OC(=O)c3ccccc3)[C@]3(O)C[C@H](O)C(C)=C1C3(C)C)[C@]1(OC(C)=O)CO[C@@H]1C[C@@H]2O` [baccatin III], for which the “cross-reaction with TA14” value in assay [5] was “cross reacts”. Moreover, the “binding to TA13” value in assay [7] was “binds with equal affinity”.

As to `CC(=O)O[C@H]1C(=O)[C@]2(C)[C@H](O)C[C@H]3OC[C@@]3(OC(C)=O)[C@H]2[C@H](OC(=O)c2ccccc2)[C@]2(O)C[C@H](O)C(C)=C1C2(C)C` [baccatin V], in assay [7], the “binding to TA13” value is “binds with equal affinity”.

With `C/C=C(\C)C(=O)N[C@@H](c1ccccc1)[C@@H](O)C(=O)O[C@H]1C[C@@]2(O)[C@@H](OC(=O)c3ccccc3)[C@@H]3[C@]4(OC(C)=O)CO[C@@H]4C[C@H](O)[C@@]3(C)C(=O)[C@H](OC(C)=O)C(=C1C)C2(C)C` [cephalomannine], the IC50 in assay [1] is 1 nM. Besides, the “cross-reaction with TA14” value in assay [5] is “cross reacts”.
